Laboratory results taken from PubChem BioAssay (NCI).
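Grown in 96-well plates, cells were treated for 48 hours with each compound at five concentrations. Insufficient inhibition: endpoint recorded as highest concentration tested. GI50 marks 50% less growth. TGI marks complete inhibition of growth.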

Legend:
Experiment in all cases: growth of human tumour cells (NCI), 48 h
NCI-H23 lung = tested on: NCI-H23 lung
NCI-H460 lung = tested on: NCI-H460 lung
NCI-H522 lung = tested on: NCI-H522 lung
NCI/ADR-RES ovarian = tested on: NCI/ADR-RES ovarian
OVCAR-3 ovarian = tested on: OVCAR-3 ovarian
OVCAR-4 ovarian = tested on: OVCAR-4 ovarian
OVCAR-5 ovarian = tested on: OVCAR-5 ovarian
OVCAR-8 ovarian = tested on: OVCAR-8 ovarian
PC-3 prostate = tested on: PC-3 prostate
RPMI-8226 leukemia = tested on: RPMI-8226 leukemia
SF-268 CNS = tested on: SF-268 CNS
SF-295 CNS = tested on: SF-295 CNS
SF-539 CNS = tested on: SF-539 CNS
SK-MEL-2 melanoma = tested on: SK-MEL-2 melanoma
SK-MEL-28 melanoma = tested on: SK-MEL-28 melanoma
SK-MEL-5 melanoma = tested on: SK-MEL-5 melanoma
SK-OV-3 ovarian = tested on: SK-OV-3 ovarian
SN12C renal = tested on: SN12C renal
SNB-19 CNS = tested on: SNB-19 CNS
SNB-75 CNS = tested on: SNB-75 CNS
SR leukemia = tested on: SR leukemia
SW-620 colon = tested on: SW-620 colon
T-47D breast = tested on: T-47D breast
TK-10 renal = tested on: TK-10 renal
U251 CNS = tested on: U251 CNS
UACC-257 melanoma = tested on: UACC-257 melanoma
UACC-62 melanoma = tested on: UACC-62 melanoma
UO-31 renal = tested on: UO-31 renal

For `O=C(Nc1ccc(CN2CCOCC2)cc1)c1ccc(-c2cc(Cl)ccc2Cl)o1`, the GI50 (NCI-H23 lung) was 12.8 µM, the TGI (NCI-H23 lung) was 31.8 µM and the GI50 (NCI-H460 lung) was 3.54 µM. The TGI (NCI-H460 lung) was 12.4 µM, the GI50 (NCI-H522 lung) was 10.2 µM and the TGI (NCI-H522 lung) was 26.6 µM. It also gave a GI50 (NCI/ADR-RES ovarian) of 17.4 µM, a TGI (NCI/ADR-RES ovarian) of over 100 µM and a GI50 (OVCAR-3 ovarian) of 15.3 µM. For the same compound, the TGI (OVCAR-3 ovarian) was 39.2 µM, the GI50 (OVCAR-4 ovarian) was 17.6 µM and the TGI (OVCAR-4 ovarian) was 67.1 µM. For the same compound, the GI50 (OVCAR-5 ovarian) was 15.7 µM, the TGI (OVCAR-5 ovarian) was 61.1 µM and the GI50 (OVCAR-8 ovarian) was 11.4 µM. For the same compound, the TGI (OVCAR-8 ovarian) was 51.3 µM, the GI50 (PC-3 prostate) was 8.63 µM and the TGI (PC-3 prostate) was 36.4 µM. It also gave a GI50 (RPMI-8226 leukemia) of 3.49 µM, a TGI (RPMI-8226 leukemia) of 17.7 µM and a GI50 (SF-268 CNS) of 16.5 µM. The TGI (SF-268 CNS) was 49.1 µM, the GI50 (SF-295 CNS) was 5.38 µM and the TGI (SF-295 CNS) was 28.5 µM. The GI50 (SF-539 CNS) was 8.69 µM, the TGI (SF-539 CNS) was 24.9 µM and the GI50 (SK-MEL-2 melanoma) was 14.7 µM. For the same compound, the TGI (SK-MEL-2 melanoma) was 30.5 µM, the GI50 (SK-MEL-28 melanoma) was 11.9 µM and the TGI (SK-MEL-28 melanoma) was 26.6 µM. For the same compound, the GI50 (SK-MEL-5 melanoma) was 4.45 µM, the TGI (SK-MEL-5 melanoma) was 16.7 µM and the GI50 (SK-OV-3 ovarian) was 15.1 µM. The TGI (SK-OV-3 ovarian) was 30.6 µM, the GI50 (SN12C renal) was 16.4 µM and the TGI (SN12C renal) was 52.6 µM. It also gave a GI50 (SNB-19 CNS) of 16.2 µM, a TGI (SNB-19 CNS) of 35.6 µM and a GI50 (SNB-75 CNS) of 16 µM. The TGI (SNB-75 CNS) was 36 µM, the GI50 (SR leukemia) was 2.35 µM and the TGI (SR leukemia) was 8.99 µM. It also gave a GI50 (SW-620 colon) of 3.33 µM, a TGI (SW-620 colon) of 11.5 µM and a GI50 (T-47D breast) of 5.34 µM. It also gave a TGI (T-47D breast) of 22.4 µM, a GI50 (TK-10 renal) of 13.1 µM and a TGI (TK-10 renal) of 29.1 µM. For the same compound, the GI50 (U251 CNS) was 4.62 µM, the TGI (U251 CNS) was 19.6 µM and the GI50 (UACC-257 melanoma) was 11.2 µM. The TGI (UACC-257 melanoma) was 24.4 µM, the GI50 (UACC-62 melanoma) was 2.39 µM and the TGI (UACC-62 melanoma) was 6.88 µM. For the same compound, the GI50 (UO-31 renal) was 18.3 µM and the TGI (UO-31 renal) was 78.1 µM.
